From the OligoGym collection
HELM strings list units from the 5' end as sugar, base in round brackets, then linkage (d deoxyribose, r ribose, m 2'-O-methyl, p phosphodiester). Strings are as the collection lists them; they lack the last nucleoside at the 3' end of the tested compound. [moe] = 2'-O-(2-methoxyethyl) (MOE); [sp] = phosphorothioate linkage; [m5C] = 5-methylcytosine

target: ATXN2; assay: mouse, dose not given; settings: ASO

Substance	3 h FOB score [score 0-7]
RNA1{[moe](G)[sp].[moe](T)p.[moe](A)p.[moe](T)p.[moe](G)p.d(T)[sp].d(T)[sp].d(T)[sp].d(G)[sp].d(T)[sp].d([m5C])[sp].d(T)[sp].d(G)[sp].d(T)[sp].d([m5C])[sp].[moe](T)p.[moe](T)p.[moe](A)[sp].[moe](T)}$$$$ (last 3' nucleoside missing)	6
RNA1{[moe](G)[sp].[moe](T)p.[moe](A)p.[moe](T)p.[moe](T)p.d(T)[sp].d(T)[sp].d(T)[sp].d([m5C])[sp].d(T)[sp].d(T)[sp].d([m5C])[sp].d([m5C])[sp].d(T)[sp].d([m5C])[sp].[moe](A)p.[moe]([m5C])p.[moe](T)[sp].[moe]([m5C])}$$$$ (last 3' nucleoside missing)	3.25
RNA1{[moe](G)[sp].[moe](T)p.[moe](A)p.[moe](T)p.[moe]([m5C])p.d(A)[sp].d(T)[sp].d(A)[sp].d(T)[sp].d(A)[sp].d(T)[sp].d(T)[sp].d(T)[sp].d([m5C])[sp].d(T)[sp].[moe]([m5C])p.[moe](A)p.[moe](G)[sp].[moe]([m5C])}$$$$ (last 3' nucleoside missing)	2.25
RNA1{[moe](G)[sp].[moe](T)p.[moe](A)p.[moe]([m5C])p.[moe](A)p.d(T)[sp].d(T)[sp].d(T)[sp].d(T)[sp].d(A)[sp].d(A)[sp].d([m5C])[sp].d([m5C])[sp].d([m5C])[sp].d(T)[sp].[moe](T)p.[moe](T)p.[moe](G)[sp].[moe](A)}$$$$ (last 3' nucleoside missing)	2.5
RNA1{[moe](G)[sp].[moe](T)p.[moe](A)p.[moe]([m5C])p.[moe](A)p.d([m5C])[sp].d(A)[sp].d(G)[sp].d(T)[sp].d(T)[sp].d(T)[sp].d([m5C])[sp].d(A)[sp].d([m5C])[sp].d(T)[sp].[moe](A)p.[moe](G)p.[moe](G)[sp].[moe](T)}$$$$ (last 3' nucleoside missing)	3
RNA1{[moe](G)[sp].[moe](T)p.[moe](A)p.[moe]([m5C])p.[moe](T)[sp].d(T)[sp].d(T)[sp].d(T)[sp].d([m5C])[sp].d(T)[sp].d([m5C])[sp].d(A)[sp].d(T)[sp].[moe](G)p.[moe](T)p.[moe](G)[sp].[moe]([m5C])}$$$$ (last 3' nucleoside missing)	1.25
RNA1{[moe](G)[sp].[moe](T)p.[moe](A)p.[moe]([m5C])p.[moe](T)[sp].d(T)[sp].d([m5C])[sp].d(A)[sp].d([m5C])[sp].d(A)[sp].d(T)[sp].d(T)[sp].d(T)[sp].[moe](G)p.[moe](G)p.[moe](A)[sp].[moe](G)}$$$$ (last 3' nucleoside missing)	1
RNA1{[moe](G)[sp].[moe](T)p.[moe](A)p.[moe]([m5C])p.[moe](T)p.d(T)[sp].d(T)[sp].d(T)[sp].d([m5C])[sp].d(T)[sp].d([m5C])[sp].d(A)[sp].d(T)[sp].d(G)[sp].d(T)[sp].[moe](G)p.[moe]([m5C])p.[moe](G)[sp].[moe](G)}$$$$ (last 3' nucleoside missing)	1
RNA1{[moe](G)[sp].[moe](T)p.[moe](A)p.[moe]([m5C])p.[moe](T)p.d(T)[sp].d([m5C])[sp].d(A)[sp].d([m5C])[sp].d(A)[sp].d(T)[sp].d(T)[sp].d(T)[sp].d(G)[sp].d(G)[sp].[moe](A)p.[moe](G)p.[moe]([m5C])[sp].[moe]([m5C])}$$$$ (last 3' nucleoside missing)	1
RNA1{[moe](G)[sp].[moe](T)p.[moe](G)p.[moe](A)p.[moe](G)p.d(T)[sp].d(T)[sp].d([m5C])[sp].d(A)[sp].d([m5C])[sp].d([m5C])[sp].d(T)[sp].d(G)[sp].d([m5C])[sp].d(A)[sp].[moe](T)p.[moe]([m5C])p.[moe]([m5C])[sp].[moe]([m5C])}$$$$ (last 3' nucleoside missing)	2.25
RNA1{[moe](G)[sp].[moe](T)p.[moe](G)p.[moe](A)p.[moe](T)p.[moe](G)p.d(T)[sp].d(T)[sp].d(T)[sp].d([m5C])[sp].d(A)[sp].d(T)[sp].d(T)[sp].d(G)[sp].d(G)[sp].d(G)[sp].[moe](T)p.[moe](T)[sp].[moe](T)}$$$$ (last 3' nucleoside missing)	4
RNA1{[moe](G)[sp].[moe](T)p.[moe](G)p.[moe](A)p.[moe](T)p.d(G)[sp].d(T)[sp].d(T)[sp].d(T)[sp].d([m5C])[sp].d(A)[sp].d(T)[sp].d(T)[sp].d(G)[sp].d(G)[sp].[moe](G)p.[moe](T)p.[moe](T)[sp].[moe](T)}$$$$ (last 3' nucleoside missing)	4.5
RNA1{[moe](G)[sp].[moe](T)p.[moe](G)p.[moe](A)p.d(T)[sp].d(G)[sp].d(T)[sp].d(T)[sp].d(T)[sp].d([m5C])[sp].d(A)[sp].d(T)[sp].d(T)[sp].d(G)[sp].[moe](G)p.[moe](G)p.[moe](T)p.[moe](T)[sp].[moe](T)}$$$$ (last 3' nucleoside missing)	6
RNA1{[moe](G)[sp].[moe](T)p.[moe](G)p.[moe](G)p.[moe](T)[sp].d(G)[sp].d(T)[sp].d(G)[sp].d([m5C])[sp].d(G)[sp].d([m5C])[sp].d(A)[sp].d(T)[sp].[moe](G)p.[moe](T)p.[moe](A)[sp].[moe](G)}$$$$ (last 3' nucleoside missing)	6.75
RNA1{[moe](G)[sp].[moe](T)p.[moe](G)p.[moe](G)p.[moe](T)p.d(G)[sp].d(G)[sp].d(T)[sp].d(G)[sp].d(T)[sp].d(G)[sp].d([m5C])[sp].d(G)[sp].d([m5C])[sp].d(A)[sp].[moe](T)p.[moe](G)p.[moe](T)[sp].[moe](A)}$$$$ (last 3' nucleoside missing)	7
RNA1{[moe](G)[sp].[moe](T)p.[moe](G)p.[moe](G)p.[moe](T)p.d(G)[sp].d(T)[sp].d(G)[sp].d([m5C])[sp].d(G)[sp].d([m5C])[sp].d(A)[sp].d(T)[sp].d(G)[sp].d(T)[sp].[moe](A)p.[moe](G)p.[moe](A)[sp].[moe]([m5C])}$$$$ (last 3' nucleoside missing)	5.5
RNA1{[moe](G)[sp].[moe](T)p.[moe](G)p.[moe](G)p.[moe]([m5C])p.d(T)[sp].d(T)[sp].d(T)[sp].d(A)[sp].d(A)[sp].d(A)[sp].d(A)[sp].d(A)[sp].d([m5C])[sp].d(T)[sp].[moe](A)p.[moe](G)p.[moe](G)[sp].[moe](T)}$$$$ (last 3' nucleoside missing)	0
RNA1{[moe](G)[sp].[moe](T)p.[moe](G)p.[moe](T)p.[moe](T)p.d(G)[sp].d([m5C])[sp].d(A)[sp].d([m5C])[sp].d(A)[sp].d(T)[sp].d(A)[sp].d(G)[sp].d(G)[sp].d(T)[sp].[moe](T)p.[moe](A)p.[moe](G)[sp].[moe](A)}$$$$ (last 3' nucleoside missing)	6.5
RNA1{[moe](G)[sp].[moe](T)p.[moe](G)p.[moe](T)p.[moe](T)p.d(T)[sp].d(A)[sp].d(A)[sp].d(T)[sp].d(T)[sp].d(T)[sp].d(G)[sp].d(T)[sp].d(A)[sp].d(A)[sp].[moe]([m5C])p.[moe](T)p.[moe](A)[sp].[moe](G)}$$$$ (last 3' nucleoside missing)	4
RNA1{[moe](G)[sp].[moe](T)p.[moe](G)p.[moe](T)p.[moe](T)p.d(T)[sp].d(G)[sp].d(G)[sp].d(G)[sp].d(A)[sp].d(T)[sp].d(G)[sp].d([m5C])[sp].d(T)[sp].d(T)[sp].[moe]([m5C])p.[moe](A)p.[moe](G)[sp].[moe](A)}$$$$ (last 3' nucleoside missing)	5.5
RNA1{[moe](G)[sp].[moe](T)p.[moe](G)p.[moe](T)p.[moe](T)p.d([m5C])[sp].d(A)[sp].d(G)[sp].d(T)[sp].d(A)[sp].d(T)[sp].d(A)[sp].d(G)[sp].d(A)[sp].d(T)[sp].[moe](T)p.[moe](A)p.[moe](T)[sp].[moe]([m5C])}$$$$ (last 3' nucleoside missing)	3.75
RNA1{[moe](G)[sp].[moe](T)p.[moe](G)p.[moe](T)p.[moe](T)p.d([m5C])[sp].d(A)[sp].d(T)[sp].d(G)[sp].d(A)[sp].d([m5C])[sp].d(T)[sp].d(T)[sp].d(T)[sp].d([m5C])[sp].[moe](A)p.[moe](A)p.[moe](G)[sp].[moe](G)}$$$$ (last 3' nucleoside missing)	3.5
RNA1{[moe](G)[sp].[moe](T)p.[moe](T)p.[moe](A)p.[moe]([m5C])[sp].d(T)[sp].d(G)[sp].d(T)[sp].d(T)[sp].d(T)[sp].d([m5C])[sp].d(G)[sp].d(A)[sp].[moe]([m5C])p.[moe]([m5C])p.[moe](T)[sp].[moe]([m5C])}$$$$ (last 3' nucleoside missing)	6
RNA1{[moe](G)[sp].[moe](T)p.[moe](T)p.[moe](A)p.[moe]([m5C])p.[moe](T)p.d(G)[sp].d(T)[sp].d(T)[sp].d(T)[sp].d([m5C])[sp].d(G)[sp].d(A)[sp].d([m5C])[sp].d([m5C])[sp].d(T)[sp].[moe]([m5C])p.[moe](T)[sp].[moe](G)}$$$$ (last 3' nucleoside missing)	5
RNA1{[moe](G)[sp].[moe](T)p.[moe](T)p.[moe](A)p.[moe]([m5C])p.d(T)[sp].d(G)[sp].d(T)[sp].d(T)[sp].d(T)[sp].d([m5C])[sp].d(G)[sp].d(A)[sp].d([m5C])[sp].d([m5C])[sp].[moe](T)p.[moe]([m5C])p.[moe](G)[sp].[moe](G)}$$$$ (last 3' nucleoside missing)	4.5
RNA1{[moe](G)[sp].[moe](T)p.[moe](T)p.[moe](A)p.[moe]([m5C])p.d(T)[sp].d(G)[sp].d(T)[sp].d(T)[sp].d(T)[sp].d([m5C])[sp].d(G)[sp].d(A)[sp].d([m5C])[sp].d([m5C])[sp].[moe](T)p.[moe]([m5C])p.[moe](T)[sp].[moe](G)}$$$$ (last 3' nucleoside missing)	6.5
RNA1{[moe](G)[sp].[moe](T)p.[moe](T)p.[moe](A)p.d([m5C])[sp].d(T)[sp].d(G)[sp].d(T)[sp].d(T)[sp].d(T)[sp].d([m5C])[sp].d(G)[sp].d(A)[sp].d([m5C])[sp].[moe]([m5C])p.[moe](T)p.[moe]([m5C])p.[moe](T)[sp].[moe](G)}$$$$ (last 3' nucleoside missing)	6.5
